# Results from US12521415B2, “Accelerating repair of mucosal injury using gold(III) compounds” (University of Kentucky Research Foundation, priority 2020, dated 2026).
# System: normal colonocytes (NCM460)
# Test: Mitochondrial uptake of AuPhos by gold content (graphite furnace atomic absorption spectroscopy) in NCM460
# Format: cell-based, human
# Conditions: normal colon epithelial cells (NCM460)
# Excerpt: FIGS. 8A-8J present properties of AuPhos. FIG. 8A includes a chemical structure of AuPhos. FIG. 8B includes extrapolated AuPhos-induced OCR (complex I) in liver mitochondria. […] FIG. 8E provides weight change in AuPhos-treated mice over time. FIG. 8F presents stability of AuPhos in PBS and DMEM. FIG. 8G presents stability of AuPhos in PBS and DMEM. FIG. 8H includes an AuPhos-induced Heat map of DEG (left Panel), obtained using log 2(Fold Change) and p-Value <0.00001 thresholds in MDA-MB-231(107) cells (n=2), and the top six hits of KEGG analysis (right panel). FIG. 8I presents biodistribution and pharmacokinetics of AuPhos in different tissues; Colon, Small bowel, Lung, Kidney, Spleen, Liver, Heart and Blood after single dose (oral, 25 mg/kg) administration of AuPhos at 6 h, 12 h and 24 h. FIG. 8J presents biodistribution and pharmacokinetics of AuPhos in different tissues stool after single dose (oral, 25 mg/kg) administration of AuPhos at 6 h, 12 h and 24 h.
# FIGS. 16A-16E illustrate the pharmacokinetics and effects of AuPhos on mitochondrial bioenergetics. FIG. 16A. Biodistribution and pharmacokinetics of AuPhos in different tissues; Colon, Small bowel, Spleen, Liver after a single intragastric (i.g.) gavage (25 mg/kg) with measurements of AuPhos tissue levels (graphite furnace atomic absorption spectroscopy) at times indicated. FIG. 16B. […]
smiles,measurement,value
[Cl][Au]1([c]2ccccc2Cc2ccccn2)[P](c2ccccc2)(c2ccccc2)c2ccccc2[P]1(c1ccccc1)c1ccccc1 [AuPhos],mitochondrial localization (gold content),localizes in the mitochondria
